This series can be described thus: in vitro. The format is in vitro ADME, human. Here is the method: For several compounds only human liver microsomal stability was tested. […] The microsomal assays were carried out with and without the addition of NADPH at a final concentration of 1 mM. For negative control samples, NADPH reagent was not added. […] Note that compounds undergo only Phase I metabolism in liver microsomes.

[1] abbreviates: human liver microsomes 0.5 mg/mL, with NADPH, compound 0.5 μM, 37° C., read-out: Human Liver Microsomal Stability t1/2.
Setting [2] is: human liver microsomes 0.5 mg/mL, with NADPH, compound 0.5 μM, read-out: Human Liver Microsomal Stability CLint (uL/min/mg liver) (converted).
Setting [3] is: human liver microsomes, no NADPH, compound 0.5 μM.

Results on 25 compounds are retold here after patent US20250034201A1, “PRODRUGS OF GANAXOLONE” (priority 2022, published 2025).

Where two headings read alike, the source gives them in different places.

`CC(=O)[C@H]1CC[C@H]2[C@@H]3CC[C@H]4C[C@](C)(OC(=O)COC(=O)CNC(=O)[C@@H](N)C(C)C)CC[C@]4(C)[C@H]3CC[C@]12C` [Compound 214]: the half-life under setting [1] was 161 min. Also, the microsomal CLint under setting [2] is 8.6 µL/min/mg. Besides, the “Human Liver Microsomal Stability no NADPH, % remain 1 h” value under setting [3] is listed as 79.5%.

For the compound `CC(=O)[C@H]1CC[C@H]2[C@@H]3CC[C@H]4C[C@](C)(OC(=O)COC(=O)[C@H](CC(C)C)NC(=O)[C@@H](N)CC(C)C)CC[C@]4(C)[C@H]3CC[C@]12C` [Compound 215], under setting [1], the half-life was 257 min. Moreover, under setting [2], the microsomal CLint was 5.39 µL/min/mg. The “Human Liver Microsomal Stability no NADPH, % remain 1 h” value under setting [3] is on record as 88%.

As for `CC(=O)[C@H]1CC[C@H]2[C@@H]3CC[C@H]4C[C@](C)(OC(=O)COC(=O)CNC(=O)[C@H](C)N)CC[C@]4(C)[C@H]3CC[C@]12C` [Compound 216], under setting [1], the half-life was 192 min. The microsomal CLint under setting [2] is 7.22 µL/min/mg. Further, the “Human Liver Microsomal Stability no NADPH, % remain 1 h” value under setting [3] is recorded as 80%.

As for `CC(=O)[C@H]1CC[C@H]2[C@@H]3CC[C@H]4C[C@](C)(CC(=O)COC(=O)NCCN(C)C)CC[C@]4(C)[C@H]3CC[C@]12C` [Compound 217], under setting [1], the half-life was 316 min. For the same compound, the microsomal CLint under setting [2] is 4.39 µL/min/mg. The “Human Liver Microsomal Stability no NADPH, % remain 1 h” value under setting [3] worked out at 99.7%.

For `CC(=O)[C@H]1CC[C@H]2[C@@H]3CC[C@H]4C[C@](C)(OC(=O)COC(=O)OC5CNC5)CC[C@]4(C)[C@H]3CC[C@]12C` [Compound 222], the “Comments: production of GNX (ganaxolone) in human liver microsomes” value (“Comments: production of GNX (ganaxolone)” below) (human liver microsomes) is given as “In human no GNX produced”. In addition, the half-life under setting [1] was determined as 63.7 min. Moreover, the microsomal CLint under setting [2] is 21.8 µL/min/mg. Under setting [3], the “Human Liver Microsomal Stability no NADPH, % remain 1 h” value was 61%.

As to `CC(=O)[C@H]1CC[C@H]2[C@@H]3CC[C@H]4C[C@](C)(OC(=O)COC(=O)C(C)(C)OC(=O)CN(C)C)CC[C@]4(C)[C@H]3CC[C@]12C` [Compound 227], the “Comments: production of GNX (ganaxolone)” value is “In human no GNX produced”. For the same compound, for the setting “human, microsomes”, the half-life was determined as 23.9 min; the microsomal CLint worked out at 58.1 µL/min/mg; the “Human Liver Microsomal Stability no NADPH, % remain 1 h” value is given as 71%.

As to `CC(=O)COCN(CCO)CC(=O)OC(C)(C)C(=O)OCC(=O)O[C@]1(C)CC[C@@]2(C)[C@@H](CC[C@@H]3[C@@H]2CC[C@]2(C)[C@@H](C(C)=O)CC[C@@H]32)C1` [Compound 230], under setting [1], the half-life amounted to 2.94 min. Besides, the microsomal CLint under setting [2] is 471 µL/min/mg. For the same compound, the “Human Liver Microsomal Stability no NADPH, % remain 1 h” value under setting [3] turned out to be 1%.

As to `CC(=O)[C@H]1CC[C@H]2[C@@H]3CC[C@H]4C[C@](C)(OC(=O)COC(=O)C(C)(C)OC(=O)CN(CCCO)CCCO)CC[C@]4(C)[C@H]3CC[C@]12C` [Compound 231], the half-life under setting [1] is 5.3 min. The microsomal CLint under setting [2] is 261 µL/min/mg. For the same compound, the “Human Liver Microsomal Stability no NADPH, % remain 1 h” value under setting [3] came to 98%.

With `CNC(C)(C)C(=O)OCC(=O)O[C@]1(C)CC[C@@]2(C)[C@@H](CC[C@@H]3[C@@H]2CC[C@]2(C)[C@@H](C(C)=O)CC[C@@H]32)C1` [Compound 232], the half-life under setting [1] came to 13.5 min. Further, under setting [2], the microsomal CLint is 103 µL/min/mg. The “Human Liver Microsomal Stability no NADPH, % remain 1 h” value under setting [3] is listed as 27%.

For the compound `CC(=O)[C@H]1CC[C@H]2[C@@H]3CC[C@H]4C[C@](C)(OC(=O)COC(=O)C(C)(C)OC(=O)CN(C)CCO)CC[C@]4(C)[C@H]3CC[C@]12C` [Compound 233], under setting [1], the half-life stood at 5.3 min. The microsomal CLint under setting [2] was 261 µL/min/mg. Further, the “Human Liver Microsomal Stability no NADPH, % remain 1 h” value under setting [3] amounted to 5%.

Take `COCCN(CCO)CC(=O)OC(C)(C)C(=O)OCC(=O)O[C@]1(C)CC[C@@]2(C)[C@@H](CC[C@@H]3[C@@H]2CC[C@]2(C)[C@@H](C(C)=O)CC[C@@H]32)C1` [Compound 235]: under setting [1], the half-life was determined as 5.2 min. Moreover, the microsomal CLint under setting [2] was 269 µL/min/mg. Besides, the “Human Liver Microsomal Stability no NADPH, % remain 1 h” value under setting [3] was determined as 36%.

Consider `COCCN(CCOC(C)=O)CC(=O)OC(C)(C)C(=O)OCC(=O)O[C@]1(C)CC[C@@]2(C)[C@@H](CC[C@@H]3[C@@H]2CC[C@]2(C)[C@@H](C(C)=O)CC[C@@H]32)C1` [Compound 236], for which, for the setting “human, microsomes”, the half-life was 3.72 min; the microsomal CLint came to 372 µL/min/mg; the “Human Liver Microsomal Stability no NADPH, % remain 1 h” value was less than 1%.

As for `CC(=O)OCCCN(CCCOC(C)=O)CC(=O)OC(C)(C)C(=O)OCC(=O)O[C@]1(C)CC[C@@]2(C)[C@@H](CC[C@@H]3[C@@H]2CC[C@]2(C)[C@@H](C(C)=O)CC[C@@H]32)C1` [Compound 237], where the note is “human, microsomes”, the half-life turned out to be 5.18 min; the microsomal CLint was 267 µL/min/mg; the “Human Liver Microsomal Stability no NADPH, % remain 1 h” value is listed as less than 1%.

Turning to `CC(=O)[C@H]1CC[C@H]2[C@@H]3CC[C@H]4C[C@](C)(OC(=O)COC(=O)C(C)(C)OC(=O)CN(C)CCOC(=O)CN)CC[C@]4(C)[C@H]3CC[C@]12C` [Compound 241], under “human, microsomes”, the half-life came to 3.9 min; the microsomal CLint came out at 356 µL/min/mg; the “Human Liver Microsomal Stability no NADPH, % remain 1 h” value was 3.68%.

In the case of `CC(=O)[C@H]1CC[C@H]2[C@@H]3CC[C@H]4C[C@](C)(OC(=O)COC(=O)C(C)(C)OC(=O)CN(C)CCCO)CC[C@]4(C)[C@H]3CC[C@]12C` [Compound 245], the half-life under setting [1] worked out at 11.4 min. The microsomal CLint under setting [2] is 122 µL/min/mg. Also, the “Human Liver Microsomal Stability no NADPH, % remain 1 h” value under setting [3] is 69.7%.

Turning to `CC(=O)[C@H]1CC[C@H]2[C@@H]3CC[C@H]4C[C@](C)(OC(=O)COC(=O)CO)CC[C@]4(C)[C@H]3CC[C@]12C` [Compound 247], the half-life under setting [1] amounted to 2.01 min. Under setting [2], the microsomal CLint was 689 µL/min/mg. Also, the “Human Liver Microsomal Stability no NADPH, % remain 1 h” value under setting [3] came to 1.1%.

Take `CC(=O)[C@H]1CC[C@H]2[C@@H]3CC[C@H]4C[C@](C)(OC(=O)CSCCN)CC[C@]4(C)[C@H]3CC[C@]12C` [Compound 302]: the “Comments: production of GNX (ganaxolone)” value (human liver microsomes) is listed as “In human GNX not produced”. In addition, under “human, microsomes”, the half-life was found to be 248 min; the microsomal CLint came out at 5.59 µL/min/mg; the “Human Liver Microsomal Stability no NADPH, % remain 1 h” value was 99%.

For the compound `CC(=O)[C@H]1CC[C@H]2[C@@H]3CC[C@H]4C[C@](C)(OC(=O)CSCCOC(=O)CN5CCOCC5)CC[C@]4(C)[C@H]3CC[C@]12C` [Compound 303], where the note is “human liver microsomes”, the “Comments: production of GNX (ganaxolone)” value is listed as “In human GNX not produced”. The half-life under setting [1] came out at 2.48 min. Moreover, the microsomal CLint under setting [2] is 599 µL/min/mg. The “Human Liver Microsomal Stability no NADPH, % remain 1 h” value under setting [3] was 90%.

As to `CC(=O)[C@H]1CC[C@H]2[C@@H]3CC[C@H]4C[C@](C)(OC(=O)CSC(=N)N)CC[C@]4(C)[C@H]3CC[C@]12C` [Compound 304], the “Comments: production of GNX (ganaxolone)” value (human liver microsomes) was “In human small amount of GNX produced”. Further, the half-life under setting [1] worked out at 173 min. Besides, the microsomal CLint under setting [2] is 8.03 µL/min/mg. Besides, the “Human Liver Microsomal Stability no NADPH, % remain 1 h” value under setting [3] is given as 83.8%.

For `CC(=O)[C@H]1CC[C@H]2[C@@H]3CC[C@H]4C[C@](C)(OC(=O)CSC(C)(C)C(=O)O)CC[C@]4(C)[C@H]3CC[C@]12C` [Compound 305], for the setting “human liver microsomes”, the “Comments: production of GNX (ganaxolone)” value is recorded as “In human small amount of GNX produced”. Under setting [1], the half-life amounted to 171 min. Further, the microsomal CLint under setting [2] is 8.12 µL/min/mg. For the same compound, the “Human Liver Microsomal Stability no NADPH, % remain 1 h” value under setting [3] was 98.8%.

For `CC(=O)[C@H]1CC[C@H]2[C@@H]3CC[C@H]4C[C@](C)(OC(=O)CSC(C)(C)C(=O)NCCN(C)C)CC[C@]4(C)[C@H]3CC[C@]12C` [Compound 307], the “Comments: production of GNX (ganaxolone)” value (human liver microsomes) is listed as “In human no GNX produced”. Further, under setting [1], the half-life worked out at 391 min. Also, the microsomal CLint under setting [2] is 3.55 µL/min/mg. Under setting [3], the “Human Liver Microsomal Stability no NADPH, % remain 1 h” value turned out to be 99%.

On to `CC(=O)[C@H]1CC[C@H]2[C@@H]3CC[C@H]4C[C@](C)(OC(=O)CSC(C)(C)COC(=O)CN5CCOCC5)CC[C@]4(C)[C@H]3CC[C@]12C` [Compound 310], for which, under “human liver microsomes”, the “Comments: production of GNX (ganaxolone)” value is “In human no GNX produced”. Further, under setting [1], the half-life amounted to 2.9 min. In addition, the microsomal CLint under setting [2] was 474 µL/min/mg. For the same compound, under setting [3], the “Human Liver Microsomal Stability no NADPH, % remain 1 h” value is recorded as 1%.

`CC(=O)[C@H]1CC[C@H]2[C@@H]3CC[C@H]4C[C@](C)(OC(=O)CCC(=O)O)CC[C@]4(C)[C@H]3CC[C@]12C` [Compound 407]: the “Comments: production of GNX (ganaxolone)” value (human liver microsomes) is on record as “In human no GNX produced”. Besides, the half-life under setting [1] is 79.8 min. Under setting [2], the microsomal CLint is 17.4 µL/min/mg. The “Human Liver Microsomal Stability no NADPH, % remain 1 h” value under setting [3] was found to be 99%.

Turning to `CC(=O)[C@H]1CC[C@H]2[C@@H]3CC[C@H]4C[C@](C)(OC(=O)C5CC5C(=O)O)CC[C@]4(C)[C@H]3CC[C@]12C` (some centres unmarked) [Compound 408], the “Comments: production of GNX (ganaxolone)” value (human liver microsomes) is “In human no GNX produced”. Moreover, the half-life under setting [1] came out at 143 min. Moreover, the microsomal CLint under setting [2] was 9.72 µL/min/mg. Also, the “Human Liver Microsomal Stability no NADPH, % remain 1 h” value under setting [3] was determined as 76%.

`CC(=O)[C@H]1CC[C@H]2[C@@H]3CC[C@H]4C[C@](C)(OC(=O)CCC(=O)OCCN(C)C)CC[C@]4(C)[C@H]3CC[C@]12C` [Compound 409]: the “Comments: production of GNX (ganaxolone)” value (human liver microsomes) is “In human small amount of GNX produced”. For the same compound, for the setting “human, microsomes”, the half-life came to 12.8 min; the microsomal CLint stood at 108 µL/min/mg; the “Human Liver Microsomal Stability no NADPH, % remain 1 h” value is given as 7%.
